{
  "source": "PubChem BioAssay AID1259407",
  "about": "(Chemical Carcinogenesis Research Information System (CCRIS), 2018)",
  "tested_on": "CCRIS mutagenicity, Ames/micronucleus/aberration tests",
  "assay": "CCRIS mutagenicity studies",
  "key": {"[1]": {"conditions": "Test System: AMES SALMONELLA TYPHIMURIUM, Strain/Indicator: TA100, Metabolic Activation: NONE, Method: PREINCUBATION"}, "[2]": {"conditions": "Test System: AMES SALMONELLA TYPHIMURIUM, Strain/Indicator: TA100, Metabolic Activation: NONE, Method: STANDARD PLATE"}, "[3]": {"conditions": "Test System: AMES SALMONELLA TYPHIMURIUM, Strain/Indicator: TA100, Metabolic Activation: RAT, LIVER, S-9, AROCLOR 1254, Method: STANDARD PLATE"}, "[4]": {"conditions": "Test System: AMES SALMONELLA TYPHIMURIUM, Strain/Indicator: TA1535, Metabolic Activation: NONE, Method: PREINCUBATION"}, "[5]": {"conditions": "Test System: AMES SALMONELLA TYPHIMURIUM, Strain/Indicator: TA1535, Metabolic Activation: NONE, Method: STANDARD PLATE"}, "[6]": {"conditions": "Test System: AMES SALMONELLA TYPHIMURIUM, Strain/Indicator: TA98, Metabolic Activation: NONE, Method: PREINCUBATION"}},
  "note": "Activity calls are given as the source filed them. The rule behind the calls is not given here.",
  "data": [
    {"smiles": "CC1CO1", "note": "(stereo unspecified)", "values": [
      {"measurement": "mutagenic call", "setting": "End Point: IN VITRO CHROMOSOMAL ABERRATIONS, Test System: CHL CELLS, Metabolic Activation: NONE", "result": "active; positive (structural changes)"},
      {"measurement": "mutagenic call", "setting": "End Point: IN VITRO CHROMOSOMAL ABERRATIONS, Test System: CHL CELLS, Metabolic Activation: RAT, LIVER, S-9, SODIUM PHENOBARBITAL AND 5,6-BENZOFLAVONE", "result": "active; positive (structural changes)"},
      {"measurement": "mutagenic call", "setting": "End Point: IN VITRO CHROMOSOMAL ABERRATIONS, Test System: CHO CELLS, Metabolic Activation: NONE", "result": "active; positive; weak response"},
      {"measurement": "mutagenic call", "setting": "Test System: AMES SALMONELLA TYPHIMURIUM, Strain/Indicator: TA100, Metabolic Activation: HAMSTER, LIVER, S-9, AROCLOR 1254 (10%), Method: PREINCUBATION", "result": "active; positive"},
      {"measurement": "mutagenic call", "setting": "Test System: AMES SALMONELLA TYPHIMURIUM, Strain/Indicator: TA100, Metabolic Activation: NONE, Method: FLASK VAPORIZATION", "result": "active; positive"},
      {"measurement": "mutagenic call", "setting": "[1]", "result": "active; positive"},
      {"measurement": "mutagenic call", "setting": "[2]", "result": "active; positive"},
      {"measurement": "mutagenic call", "setting": "Test System: AMES SALMONELLA TYPHIMURIUM, Strain/Indicator: TA100, Metabolic Activation: NONE, Method: SUSPENSION/PLATE", "result": "active; positive"},
      {"measurement": "mutagenic call", "setting": "Test System: AMES SALMONELLA TYPHIMURIUM, Strain/Indicator: TA100, Metabolic Activation: RAT, LIVER, S-9, AROCLOR 1254 (10%), Method: PREINCUBATION", "result": "active; positive"},
      {"measurement": "mutagenic call", "setting": "Test System: AMES SALMONELLA TYPHIMURIUM, Strain/Indicator: TA100, Metabolic Activation: RAT, LIVER, S-9, AROCLOR 1254, Method: FLASK VAPORIZATION", "result": "active; positive"},
      {"measurement": "mutagenic call", "setting": "[3]", "result": "active; positive"},
      {"measurement": "mutagenic call", "setting": "Test System: AMES SALMONELLA TYPHIMURIUM, Strain/Indicator: TA1535, Metabolic Activation: HAMSTER, LIVER, S-9, AROCLOR 1254 (10%), Method: PREINCUBATION", "result": "active; positive"},
      {"measurement": "mutagenic call", "setting": "Test System: AMES SALMONELLA TYPHIMURIUM, Strain/Indicator: TA1535, Metabolic Activation: NONE, Method: FLASK VAPORIZATION", "result": "active; positive"},
      {"measurement": "mutagenic call", "setting": "[4]", "result": "active; positive"},
      {"measurement": "mutagenic call", "setting": "[5]", "result": "active; positive"},
      {"measurement": "mutagenic call", "setting": "Test System: AMES SALMONELLA TYPHIMURIUM, Strain/Indicator: TA1535, Metabolic Activation: NONE, Method: SUSPENSION/PLATE", "result": "active; positive"},
      {"measurement": "mutagenic call", "setting": "Test System: AMES SALMONELLA TYPHIMURIUM, Strain/Indicator: TA1535, Metabolic Activation: RAT, LIVER, S-9, AROCLOR 1254 (10%), Method: PREINCUBATION", "result": "active; positive"},
      {"measurement": "mutagenic call", "setting": "Test System: AMES SALMONELLA TYPHIMURIUM, Strain/Indicator: TA1535, Metabolic Activation: RAT, LIVER, S-9, AROCLOR 1254, Method: FLASK VAPORIZATION", "result": "active; positive"},
      {"measurement": "mutagenic call", "setting": "Test System: AMES SALMONELLA TYPHIMURIUM, Strain/Indicator: TA1535, Metabolic Activation: RAT, LIVER, S-9, AROCLOR 1254, Method: STANDARD PLATE", "result": "active; positive"},
      {"measurement": "mutagenic call", "setting": "Test System: Ames Salmonella typhimurium, Strain/Indicator: YG7108, Metabolic Activation: None, Method: Standard plate", "result": "active; positive"},
      {"measurement": "mutagenic call", "setting": "Test System: MOUSE LYMPHOMA, Strain/Indicator: L5178Y (TK+/TK-), Metabolic Activation: NONE, Method: SUSPENSION/PLATE", "result": "active; positive"}
    ]},
    {"smiles": "CCCCOc1cc2c(c3ccc4ccccc4c13)CCC2=O", "values": [
      {"measurement": "mutagenic call", "setting": "[3]", "result": "inactive; negative"}
    ]},
    {"smiles": "CC(C)(C)Cl", "values": [
      {"measurement": "mutagenic call", "setting": "Test System: Mouse lymphoma, Strain/Indicator: L5178Y (tk+/tk-), Metabolic Activation: None, Method: Suspension/plate", "result": "inactive; negative"},
      {"measurement": "mutagenic call", "setting": "Test System: Mouse lymphoma, Strain/Indicator: L5178Y (tk+/tk-), Metabolic Activation: Rat, Liver, S-9, Aroclor 1254, Method: Suspension/plate", "result": "inactive; negative"}
    ]},
    {"smiles": "Cc1ccc(CCC2CO2)cc1", "note": "(stereo unspecified)", "values": [
      {"measurement": "mutagenic call", "setting": "[1]", "result": "inactive; negative"},
      {"measurement": "mutagenic call", "setting": "[2]", "result": "active; positive"},
      {"measurement": "mutagenic call", "setting": "[4]", "result": "inactive; negative"},
      {"measurement": "mutagenic call", "setting": "[5]", "result": "active; positive"}
    ]},
    {"smiles": "O=C(/C=C/c1cccc([N+](=O)[O-])c1)c1ccccc1", "values": [
      {"measurement": "mutagenic call", "setting": "Test System: AMES SALMONELLA TYPHIMURIUM, Strain/Indicator: TA98, Metabolic Activation: NONE, Method: STANDARD PLATE", "result": "inactive; negative"},
      {"measurement": "mutagenic call", "setting": "Test System: AMES SALMONELLA TYPHIMURIUM, Strain/Indicator: TA98, Metabolic Activation: RAT, LIVER, S-9, AROCLOR 1254, Method: STANDARD PLATE", "result": "inactive; negative"},
      {"measurement": "mutagenic call", "setting": "[2]", "result": "inactive; negative"},
      {"measurement": "mutagenic call", "setting": "[3]", "result": "inactive; negative"}
    ]},
    {"smiles": "Cc1nccnc1C", "values": [
      {"measurement": "mutagenic call", "setting": "[6]", "result": "inactive; negative"},
      {"measurement": "mutagenic call", "setting": "Test System: AMES SALMONELLA TYPHIMURIUM, Strain/Indicator: TA98, Metabolic Activation: RAT, LIVER, S-9, AROCLOR 1254, Method: PREINCUBATION", "result": "inactive; negative"},
      {"measurement": "mutagenic call", "setting": "[1]", "result": "inactive; negative"},
      {"measurement": "mutagenic call", "setting": "Test System: AMES SALMONELLA TYPHIMURIUM, Strain/Indicator: TA100, Metabolic Activation: RAT, LIVER, S-9, AROCLOR 1254, Method: PREINCUBATION", "result": "inactive; negative"},
      {"measurement": "mutagenic call", "setting": "Test System: AMES SALMONELLA TYPHIMURIUM, Strain/Indicator: TA102, Metabolic Activation: NONE, Method: PREINCUBATION", "result": "inactive; negative"},
      {"measurement": "mutagenic call", "setting": "Test System: AMES SALMONELLA TYPHIMURIUM, Strain/Indicator: TA102, Metabolic Activation: RAT, LIVER, S-9, AROCLOR 1254, Method: PREINCUBATION", "result": "inactive; negative"}
    ]},
    {"smiles": "O=C(Cl)C(Cl)c1ccccc1", "note": "(stereo unspecified)", "values": [
      {"measurement": "mutagenic call", "setting": "[6]", "result": "active; positive"},
      {"measurement": "mutagenic call", "setting": "Test System: AMES SALMONELLA TYPHIMURIUM, Strain/Indicator: TA98, Metabolic Activation: RAT LIVER S-9, PCB, Method: PREINCUBATION", "result": "active; positive"},
      {"measurement": "mutagenic call", "setting": "[1]", "result": "active; positive"},
      {"measurement": "mutagenic call", "setting": "Test System: AMES SALMONELLA TYPHIMURIUM, Strain/Indicator: TA100, Metabolic Activation: RAT LIVER S-9, PCB, Method: PREINCUBATION", "result": "active; positive"},
      {"measurement": "mutagenic call", "setting": "Test System: AMES SALMONELLA TYPHIMURIUM, Strain/Indicator: TA104, Metabolic Activation: NONE, Method: PREINCUBATION", "result": "active; positive"},
      {"measurement": "mutagenic call", "setting": "Test System: AMES SALMONELLA TYPHIMURIUM, Strain/Indicator: TA104, Metabolic Activation: RAT LIVER S-9, PCB, Method: PREINCUBATION", "result": "active; positive"},
      {"measurement": "mutagenic call", "setting": "Test System: E.COLI, Strain/Indicator: WP2 UVRA, Metabolic Activation: NONE, Method: PREINCUBATION", "result": "active; positive"},
      {"measurement": "mutagenic call", "setting": "Test System: E.COLI, Strain/Indicator: WP2 UVRA, Metabolic Activation: RAT LIVER S-9, PCB, Method: PREINCUBATION", "result": "active; positive"}
    ]}
  ]
}
